Test results taken from patent publication US5955495A, “Method of treating diseases of the CNS” (Hoffmann-La Roche Inc., priority 1997, dated 1999).

How the values were obtained:
5-HT2A receptor = biological target: T1, 5-HT2A receptor (Homo sapiens, UniProt P28223); assay: [3H]-DOB binding assay (method b), affinity to the 5-HT2A receptor; conditions: Ki from IC50 in nM; for Ki: read-out: Pki (Pki=-log10 Ki), 5-HT2A, Method b (converted)
T1 construct: expressed in transfected cells
Procedure: (§1) The binding of compounds of formula I in accordance with the invention to selected serotonin […] was determined in vitro by standard methods. The preparations were investigated in accordance with the tests given hereinafter:
b) Affinity to the 5-HT2A receptor in accordance with the [3H]- DOB binding assay according to the method of T. Branchek et. al., Molecular Pharmacology 38, 604-609 (1990).
(§2) The Pki values (Pki=-log10 Ki) of the test substances are given. The Ki value is defined by the following formula: [formula] with the IC50 values being those concentrations of test compounds in nM at which 50% of the receptor-bonded ligands are displaced. [L] is the ligand concentration and the KD value is the dissocation constant of the ligand.

5-HT2C receptor [1] = biological target: T2, 5-HT2C receptor (Rattus norvegicus, UniProt P08909); assay: [3H]-5-HT binding assay (method a), affinity to the 5-HT2C receptor; parameters: expressed in transfected cells; conditions: Ki from IC50 in nM; for Ki: read-out: Pki (Pki=-log10 Ki), 5-HT2C, Method a (converted)
T2 sequence (P08909 33-460): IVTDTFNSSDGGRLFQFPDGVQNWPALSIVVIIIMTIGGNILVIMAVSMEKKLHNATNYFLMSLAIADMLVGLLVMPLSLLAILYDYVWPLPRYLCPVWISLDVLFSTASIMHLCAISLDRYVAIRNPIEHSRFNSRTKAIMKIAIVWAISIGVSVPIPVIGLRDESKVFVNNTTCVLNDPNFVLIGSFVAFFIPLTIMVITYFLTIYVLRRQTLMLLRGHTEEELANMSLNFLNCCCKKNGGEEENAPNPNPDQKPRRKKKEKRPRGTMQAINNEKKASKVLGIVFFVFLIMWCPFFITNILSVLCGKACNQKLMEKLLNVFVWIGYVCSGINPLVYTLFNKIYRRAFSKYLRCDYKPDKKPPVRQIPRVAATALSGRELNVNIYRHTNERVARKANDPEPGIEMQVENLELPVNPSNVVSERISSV
Procedure: as §1
a) Affinity to the 5-HT2C receptor in accordance with the [3H]-5-HT binding assay according to the method of S.J. Peroutka et al., Brain Research 584, 191-196 (1992).
as §2

5-HT2C receptor [2] = biological target: T2, 5-HT2C receptor; assay: Penile erection (rats); type: in vivo; parameters: following the administration of the test substance to the animals; from tissue; host or cells: whole living rat (in vivo); conditions: po, 0.75 h, p.o., erections within 45 minutes following administration, read-out: ID50 (mg/kg) (p.o.), penile erection
Procedure: It has been shown that penile erection is dependent on the stimulation of 5HT2C receptors (see Berendsen & Broekkamp, Eur. J. Pharm., 135, 179-184 (1987).
The number of penile erections was determined within 45 minutes following the administration of the test substance to the animals. The ED50 is the dosage which causes 50% of these erections.

T1 sequence (P28223 whole entry): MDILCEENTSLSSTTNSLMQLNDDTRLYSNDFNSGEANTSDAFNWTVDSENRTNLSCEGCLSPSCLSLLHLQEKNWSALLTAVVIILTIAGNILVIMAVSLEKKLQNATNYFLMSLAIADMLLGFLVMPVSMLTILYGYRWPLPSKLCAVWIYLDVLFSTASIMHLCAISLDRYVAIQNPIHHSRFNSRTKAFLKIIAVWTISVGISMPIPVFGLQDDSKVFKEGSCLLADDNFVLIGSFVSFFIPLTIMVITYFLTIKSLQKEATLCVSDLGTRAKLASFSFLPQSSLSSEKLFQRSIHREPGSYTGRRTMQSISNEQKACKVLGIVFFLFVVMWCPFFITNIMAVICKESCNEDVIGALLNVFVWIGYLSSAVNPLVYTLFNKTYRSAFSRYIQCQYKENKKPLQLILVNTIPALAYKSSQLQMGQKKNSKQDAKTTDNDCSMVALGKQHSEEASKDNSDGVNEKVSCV

N=C(N)c1cc2cc(Cl)cc(Br)c2o1 [Br H Cl H H]
Ki (5-HT2A receptor): 316 nM | Ki (5-HT2C receptor [1]): 5010 nM

COc1cccc2oc(C(=N)N)cc12 [H H H OMe H]
Ki (5-HT2A receptor): 2000 nM | Ki (5-HT2C receptor [1]): 158 nM

COCc1cccc2cc(C(=N)N)oc12 [CH2 --O-Me H H H H]
Ki (5-HT2A receptor): 3160 nM | Ki (5-HT2C receptor [1]): 158 nM

N=C(N)c1cc2cc(Cl)cc(Cl)c2o1 [Cl H Cl H H]
Ki (5-HT2A receptor): 631 nM | Ki (5-HT2C receptor [1]): 2510 nM

COc1cc(-c2ccccc2)cc2cc(C(=N)N)oc12 [OMe H Ph H H]
Ki (5-HT2A receptor): 158 nM | Ki (5-HT2C receptor [1]): 1580 nM

COc1ccc2cc(C(=N)N)oc2c1 [H OMe H H H]
Ki (5-HT2A receptor): 6310 nM | Ki (5-HT2C receptor [1]): 631 nM

NC(=NO)c1cc2ccccc2o1 [H H H H CH, benzofuran-2-carboxamidoxime]
Ki (5-HT2A receptor): > 10000 nM | ED50 (5-HT2C receptor [2]): 2 mg/kg | Ki (5-HT2C receptor [1]): > 10000 nM

N=C(N)c1cc2c(F)cccc2o1 [Example 9, 4-Fluoro-benzofuran-2-carboxamidine]
Ki (5-HT2A receptor): 2000 nM | ED50 (5-HT2C receptor [2]): 2.9 mg/kg | Ki (5-HT2C receptor [1]): 39.8 nM

Cc1ccc2cc(C(=N)N)oc2c1 [H Me H H H]
Ki (5-HT2A receptor): > 10000 nM | Ki (5-HT2C receptor [1]): 1000 nM

CCCc1ccc(F)c2cc(C(=N)N)oc12 [Example 11]
Ki (5-HT2A receptor): 501 nM | Ki (5-HT2C receptor [1]): 7.94 nM

CCCOc1cccc2cc(C(=N)N)oc12 [OPr H H H H]
Ki (5-HT2A receptor): > 10000 nM | Ki (5-HT2C receptor [1]): 158 nM

N=C(N)c1cc2cccc(O)c2o1 [CH H H H H]
Pki (Pki=-log10 Ki), 5-HT2A, Method b (5-HT2A receptor): < 5 | Pki (Pki=-log10 Ki), 5-HT2C, Method a (5-HT2C receptor [1]): 6.2

N=C(N)c1cc2cc(Br)cc(Br)c2o1 [Br H Br H H]
Ki (5-HT2A receptor): 316 nM | Ki (5-HT2C receptor [1]): 2000 nM

CCOCc1cccc2cc(C(=N)N)oc12 [Example 7, 7-Ethoxymethylbenzofuran-2-carboxamidine]
Ki (5-HT2A receptor): 2000 nM | Ki (5-HT2C receptor [1]): 100 nM

CCOc1cccc2oc(C(=N)N)cc12 [Example 2, 4-Ethoxybenzofuran-2-carboxamidine]
Ki (5-HT2A receptor): > 10000 nM | Ki (5-HT2C receptor [1]): 158 nM

NC(=NO)c1cc2c(F)cccc2o1 [Example 18, 4-Fluorobenzofuran-2-carboxamidoxime]
Ki (5-HT2A receptor): 2510 nM | Ki (5-HT2C receptor [1]): 79.4 nM

N=C(N)c1cc2c(F)cc(F)cc2o1 [Example 10, 4.6-Difluoro-benzofuran-2-carboxamidine]
Ki (5-HT2A receptor): 631 nM | Ki (5-HT2C receptor [1]): 7.94 nM

N=C(N)c1cc2ccccc2o1 [H H H H H, benzofuran-2-carboxamidine]
Ki (5-HT2A receptor): 5010 nM | ED50 (5-HT2C receptor [2]): 5 mg/kg | Ki (5-HT2C receptor [1]): 79.4 nM

NC(=NO)c1cc2cc(F)ccc2o1 [Example 15, 5-Fluorobenzofuran-2-carboxamidoxime]
Ki (5-HT2A receptor): > 10000 nM | Ki (5-HT2C receptor [1]): 4270 nM

N=C(N)c1cc2cc(F)c(F)cc2o1 [Example 1, 5,6-Difluorobenzofuran-2-carboxamidine]
Ki (5-HT2A receptor): 2000 nM | ED50 (5-HT2C receptor [2]): 6 mg/kg | Ki (5-HT2C receptor [1]): 158 nM

Cc1cccc2cc(C(=N)N)oc12 [Me H H H H]
Ki (5-HT2A receptor): 2510 nM | Ki (5-HT2C receptor [1]): 398 nM

CC(C)c1cccc2cc(C(=N)N)oc12 [i-Prop H H H H]
Ki (5-HT2A receptor): 794 nM | Ki (5-HT2C receptor [1]): 63.1 nM

N=C(N)c1cc2cccc(F)c2o1 [F H H H H]
Ki (5-HT2A receptor): 5010 nM | Ki (5-HT2C receptor [1]): 794 nM

CCOc1cccc2cc(C(=N)N)oc12 [Example 4, 7-Ethoxybenzofuran-2-carboxamidine]
Ki (5-HT2A receptor): > 10000 nM | Ki (5-HT2C receptor [1]): 50.1 nM

N=C(N)c1cc2cccc(OC3CCCC3)c2o1 [O-Cyclo-pent H H H H]
Ki (5-HT2A receptor): 251 nM | Ki (5-HT2C receptor [1]): 501 nM

CSCc1cccc2cc(C(=N)N)oc12 [CH2 --S-Me H H H H]
Ki (5-HT2A receptor): 1000 nM | Ki (5-HT2C receptor [1]): 251 nM

NC(=NO)c1cc2cc(F)c(F)cc2o1 [Example 13, 5,6-Difluorobenzofuran-2-carboxamidoxime]
Ki (5-HT2A receptor): > 10000 nM | Ki (5-HT2C receptor [1]): > 10000 nM

COc1ccc(C)c2cc(C(=N)N)oc12 [OMe H H Me H]
Ki (5-HT2A receptor): 2510 nM | Ki (5-HT2C receptor [1]): 100 nM

CCOc1cccc2cc(C(N)=NO)oc12 [Example 14, 7-Ethoxybenzofuran-2-carboxamidoxime]
Ki (5-HT2A receptor): > 10000 nM | Ki (5-HT2C receptor [1]): 5500 nM

NC(=NO)c1cc2ccc(F)cc2o1 [Example 16, 6-Fluorobenzofuran-2-carboxamidoxime]
Ki (5-HT2A receptor): > 10000 nM | ED50 (5-HT2C receptor [2]): 1.6 mg/kg | Ki (5-HT2C receptor [1]): 4370 nM

CC(C)COc1cccc2cc(C(=N)N)oc12 [Oi-Bu H H H H]
Ki (5-HT2A receptor): 1000 nM | Ki (5-HT2C receptor [1]): 2000 nM

COc1cccc2cc(C(=N)N)oc12 [Example 3, 7-Methoxybenzofuran-2-carboxamidine]
Ki (5-HT2A receptor): > 10000 nM | Ki (5-HT2C receptor [1]): 158 nM

CCCc1c(F)ccc2cc(C(=N)N)oc12 [Example 8, 6-Fluoro-7-propylbenzofuran-2-carboxamidine]
Ki (5-HT2A receptor): 158 nM | Ki (5-HT2C receptor [1]): 20 nM

COc1ccc2oc(C(=N)N)cc2c1 [H H OMe H H]
Ki (5-HT2A receptor): > 10000 nM | Ki (5-HT2C receptor [1]): 2510 nM

N=C(N)c1cc2cc(Cl)ccc2o1 [H H Cl H H]
Ki (5-HT2A receptor): 1580 nM | Ki (5-HT2C receptor [1]): 1580 nM

CSc1cccc2cc(C(=N)N)oc12 [SMe H H H H]
Ki (5-HT2A receptor): 1000 nM | Ki (5-HT2C receptor [1]): 79.4 nM

N=C(N)c1cc2cccc(Cl)c2o1 [Cl H H H H]
Ki (5-HT2A receptor): 3980 nM | Ki (5-HT2C receptor [1]): 158 nM

N=C(N)c1cc2cccc(Br)c2o1 [Br H H H H]
Ki (5-HT2A receptor): 1580 nM | Ki (5-HT2C receptor [1]): 126 nM

N=C(N)c1cc2cccc(OCc3ccccc3)c2o1 [OBn H H H H]
Ki (5-HT2A receptor): 126 nM | Ki (5-HT2C receptor [1]): 63.1 nM

N=C(N)c1cc2c(F)ccc(Br)c2o1 [Example 12, 7-Bromo-4-fluorobenzofuran-2-carboxamidine]
Ki (5-HT2A receptor): > 10000 nM | Ki (5-HT2C receptor [1]): > 10000 nM

CC(C)Oc1cccc2cc(C(=N)N)oc12 [Oi-Pr H H H H]
Ki (5-HT2A receptor): 1000 nM | Ki (5-HT2C receptor [1]): 200 nM

CC(C)CCOc1cccc2cc(C(=N)N)oc12 [Oi-Pent H H H H]
Ki (5-HT2A receptor): 158 nM | Ki (5-HT2C receptor [1]): 501 nM

CCOCc1cccc2cc(C(N)=NO)oc12 [Example 17, 7-Ethoxymethylbenzofuran-2-carboxamidoxime]
Ki (5-HT2A receptor): > 10000 nM | Ki (5-HT2C receptor [1]): > 10000 nM

N=C(N)c1cc2ccc(Cl)cc2o1 [H Cl H H H]
Ki (5-HT2A receptor): 5010 nM | Ki (5-HT2C receptor [1]): 1260 nM

N=C(N)c1cc2cc(F)ccc2o1 [Example 5, 5-Fluorobenzofuran-2-carboxamidine]
Ki (5-HT2A receptor): 2000 nM | Ki (5-HT2C receptor [1]): 158 nM

N=C(N)c1cc2ccc(F)cc2o1 [Example 6, 6-Fluorobenzofuran-2-carboxamidine]
Ki (5-HT2A receptor): 2510 nM | ED50 (5-HT2C receptor [2]): 3 mg/kg | Ki (5-HT2C receptor [1]): 158 nM

CCCc1cccc2cc(C(=N)N)oc12 [n-Pr H H H H]
Ki (5-HT2A receptor): 1000 nM | Ki (5-HT2C receptor [1]): 79.4 nM

N=C(N)c1cc2cccc(OC3CCCCC3)c2o1 [O-Cyclo-hex H H H H]
Ki (5-HT2A receptor): 158 nM | Ki (5-HT2C receptor [1]): 631 nM

N=C(N)c1cc2cccc(-c3ccccc3)c2o1 [Ph H H H H]
Ki (5-HT2A receptor): 158 nM | Ki (5-HT2C receptor [1]): 251 nM

N=C(N)c1cc2ccc3c(c2o1)OCC3 [--O--CH2 --CH2 -- H H H]
Ki (5-HT2A receptor): 3160 nM | Ki (5-HT2C receptor [1]): 398 nM

COc1cc(Br)cc2cc(C(=N)N)oc12 [OMe H Br H H]
Ki (5-HT2A receptor): 2510 nM | Ki (5-HT2C receptor [1]): 126 nM

CC(C)OCc1cccc2cc(C(=N)N)oc12 [CH2 --O-iPr H H H H]
Ki (5-HT2A receptor): 2000 nM | ED50 (5-HT2C receptor [2]): 5.1 mg/kg | Ki (5-HT2C receptor [1]): 398 nM
